According to US20240374761A1, “ANIMAL MODEL HAVING HOMOLOGOUS RECOMBINATION OF MOUSE PTH1 RECEPTOR” (RADIUS PHARMACEUTICALS, INC., priority 2021, published 2024):
“Also recorded” adds a separate entry of the source. Where two headings read alike, the source gives them in different places.

Columns and labels:
[1] = biological target: T1, human PTH1R (hPTH1R-KI mice) (Homo sapiens, UniProt Q03431); assay: Blood ionized calcium (Ca++) response to PTH ligand analog injection in hPTH1R-KI mice; type: in vivo, mouse; settings: 40 nmol/kg subcutaneous
T1 construct: Met593 (followed by a stop codon); expressed in transfected cells; host or cells: homozygous hPTH1R-KI C57BL/6 mice (knock-in at the mouse Pth1r locus), in vivo
T1 sequence (Q03431 23-593 E90Y/S91D/E92V/E93P/K95Y/E96A): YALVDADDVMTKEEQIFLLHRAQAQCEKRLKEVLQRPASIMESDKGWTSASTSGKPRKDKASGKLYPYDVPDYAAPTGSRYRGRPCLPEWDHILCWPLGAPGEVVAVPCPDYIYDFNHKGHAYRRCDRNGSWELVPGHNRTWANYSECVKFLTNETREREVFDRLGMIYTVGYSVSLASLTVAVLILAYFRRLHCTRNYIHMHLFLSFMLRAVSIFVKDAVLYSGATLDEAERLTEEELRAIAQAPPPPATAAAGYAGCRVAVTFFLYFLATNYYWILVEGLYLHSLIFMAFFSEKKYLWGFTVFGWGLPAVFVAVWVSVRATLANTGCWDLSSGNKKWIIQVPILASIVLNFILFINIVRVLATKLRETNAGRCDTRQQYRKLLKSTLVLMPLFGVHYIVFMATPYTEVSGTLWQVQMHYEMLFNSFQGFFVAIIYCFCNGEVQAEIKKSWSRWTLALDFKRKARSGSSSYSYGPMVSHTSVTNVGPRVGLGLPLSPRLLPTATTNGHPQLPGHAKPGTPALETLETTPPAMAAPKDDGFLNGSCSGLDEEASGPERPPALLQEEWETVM
Procedure: (§1) The utility of the hPTH1R-KI mice of the present disclosure as a model for predicting the behavior of different PTH and PTHrP analog peptides was evaluated. Ligand-induced PTH1R signaling in bone and kidney results in a rapid increase in blood levels of free ionized calcium (Ca^++) and a decrease in blood levels of inorganic phosphorus (Pi); changes that occur through the promotion of the release of Ca and Pi from bone mineral stores, the reabsorption of Ca from the renal filtrate, and a suppression of Pi reabsorption in the kidney. Thus, blood Ca^++ and Pi levels were measured in WT and hPTH1R-KI mice before and at times after injection of PTH ligands.
Blood ionized calcium (Ca^++) levels were measured in homozygous mice comprising a heterologous polynucleotide comprising human Parathyroid Hormone 1 Receptor (hPTH1R) exons 4 to 16 (hereinafter “hPTH1R-KI” mice), and WT C57BL/6(n) mice, at age 10 weeks. Mice were treated in accordance with the ethical guidelines adopted by the Massachusetts General Hospital (MGH). Mice were injected subcutaneously in the interscapular region with vehicle (5 mM citrate, 150 mM NaCl, 0.05% Tween80, pH 5.0), or vehicle containing either PTH(1-34), PTHrP(1-36) or abaloparatide, each peptide at a dose of 40 nmol/kg of body weight, with five animals per group.
(§2) Blood was collected from a ˜2 mm tail vein incision and placed into heparinized capillary tube (Multi-cap-S, Siemens Healthcare Diagnostics Inc, Catalog No. 05656514) just prior to injection (t=0), and at 1, 2, 4 and 8 hours after injection, then immediately analyzed for pH-adjusted ionized calcium using a Siemens RapidLab 348 Ca^2+/pH analyzer.
Data was processed using Microsoft Excel 2016 and GraphPad Prism 8.0. Data is represented as means+/−standard error, and statistical significance was assessed using a two-tailed Students t-test. Two replicate experiments were performed on separated days for each set of 20 hPTH1R-KI and 20 WT control mice n hPTH1R-KI mice. The replicate experiments gave essentially the same result for the two groups, and the data (n=10) were combined as means+SEM.

[2] = biological target: T1, human PTH1R (hPTH1R-KI mice); assay: Serum inorganic phosphorus (Pi) response to PTH ligand analog injection in hPTH1R-KI mice; type: in vivo; settings: 40 nmol/kg
Procedure: To assess changes to blood Pi in response to PTH ligand injection, 10-week-old hPTH1R-KI and wild-type mice were injected with PTH(1-34), PTHrP(1-36), or Abaloparatide (see Example 13) each at a dose of 40 nmol/kg (n=5 mice per group). Tail vein blood was collected into a 1 mL microcentrifuge tubes containing 3 μL 0.5 mM EDTA on ice at t=0, 1, 2, 4, and 8 hours post-injection. The blood samples were centrifuged at 8,000 rpm at 4° C. for 15 minutes, and plasma supernatant was collected and frozen at −80° C. Plasma phosphate was analyzed using a colorimetric phosphate assay kit (AbCam. UK, Catalog No. ab65622).

[3] = biological target: T2, RG conformation of the PTH1R (Homo sapiens, UniProt Q03431); settings: versus R0 conformation; compared with teriparatide / PTH and PTHrP ligands; cited from earlier work
T2 sequence (Q03431 27-593): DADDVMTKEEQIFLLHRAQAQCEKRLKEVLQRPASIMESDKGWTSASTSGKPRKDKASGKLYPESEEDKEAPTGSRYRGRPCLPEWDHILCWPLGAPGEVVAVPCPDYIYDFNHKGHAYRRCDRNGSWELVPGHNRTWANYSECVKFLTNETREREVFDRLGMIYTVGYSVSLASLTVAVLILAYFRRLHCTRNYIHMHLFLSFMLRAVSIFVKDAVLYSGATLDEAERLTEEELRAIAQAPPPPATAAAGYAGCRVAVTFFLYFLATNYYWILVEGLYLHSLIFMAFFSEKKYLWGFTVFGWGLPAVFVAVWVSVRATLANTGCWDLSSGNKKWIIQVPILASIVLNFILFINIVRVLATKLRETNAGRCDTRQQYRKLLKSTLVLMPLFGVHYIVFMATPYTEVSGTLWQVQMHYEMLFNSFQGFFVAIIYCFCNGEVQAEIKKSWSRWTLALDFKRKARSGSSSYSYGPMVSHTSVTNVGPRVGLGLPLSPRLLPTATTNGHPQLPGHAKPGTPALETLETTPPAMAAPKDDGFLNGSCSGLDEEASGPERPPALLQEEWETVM

[4] = system: ovariectomy-induced osteopenic rats; settings: cited from earlier work
[5] = system: ovariectomy-induced osteopenic monkeys; settings: cited from earlier work
[6] = cited from earlier work
[7] = biological target: T3, endogenous rodent PTH receptor (WT C57BL/6 mice) (Mus musculus, UniProt P41593); assay: Blood ionized calcium (Ca++) response to PTH ligand analog injection in wild-type mice; type: in vivo; settings: 40 nmol/kg subcutaneous
T3 construct: WT mice expressing the endogenous rodent PTH receptor; endogenous in cells; host or cells: wild-type C57BL/6(n) mice, in vivo (bone and kidney)
T3 sequence (P41593 27-591): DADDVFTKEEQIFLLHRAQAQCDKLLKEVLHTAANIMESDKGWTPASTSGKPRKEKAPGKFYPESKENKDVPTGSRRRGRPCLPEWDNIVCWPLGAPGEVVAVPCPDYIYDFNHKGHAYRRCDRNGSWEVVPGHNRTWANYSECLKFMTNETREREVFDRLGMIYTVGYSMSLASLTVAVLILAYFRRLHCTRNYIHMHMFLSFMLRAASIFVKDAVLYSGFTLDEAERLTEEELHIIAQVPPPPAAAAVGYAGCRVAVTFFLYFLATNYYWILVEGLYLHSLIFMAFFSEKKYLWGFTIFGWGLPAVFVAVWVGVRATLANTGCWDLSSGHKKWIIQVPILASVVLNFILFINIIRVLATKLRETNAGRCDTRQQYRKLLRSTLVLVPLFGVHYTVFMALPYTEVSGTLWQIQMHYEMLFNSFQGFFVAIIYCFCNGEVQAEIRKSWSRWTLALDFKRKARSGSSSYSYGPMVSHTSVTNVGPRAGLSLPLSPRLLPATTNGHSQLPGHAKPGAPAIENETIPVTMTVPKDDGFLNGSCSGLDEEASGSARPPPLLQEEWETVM
Procedure: as §1
Blood ionized calcium (Ca^++) levels were measured in homozygous mice comprising a heterologous polynucleotide comprising human Parathyroid Hormone 1 Receptor (hPTH1R) exons 4 to 16 (hereinafter “hPTH1R-KI” mice), and WT C57BL/6(n) mice, at age 10 weeks. Mice were treated in accordance with the ethical guidelines adopted by the Massachusetts General Hospital (MGH). […]
as §2, with “analyzer. […]” for “analyzer.”

PTH1R (WT mice) = biological target: T4, PTH1R (WT mice) (Mus musculus, UniProt P41593); assay: Antagonist response: blood calcium after co-injection with PTH(1-34) in WT mice; type: in vivo; settings: 3-month-old WT mice, 40 nmol/kg subcutaneous
T4 construct: WT mice expressing the endogenous rodent PTH receptor; endogenous in cells; host or cells: wild-type C57BL/6(n) mice, in vivo (bone and kidney)
T4 sequence (P41593 27-591): T3 sequence (P41593 27-591)
Procedure: (§3) Briefly, to assess the responses to antagonist PTH analogs, 3-month-old WT or hPTH1R-KI mice were injected subcutaneously with either (1) vehicle, (2) vehicle containing PTH(1-34) alone at 40 nmol/kg, or (3) PTH(1-34) at 40 nmol/kg together with an antagonist peptide, LA-PTH(7-36) or [Leu^11,dTrp^12,Trp^23,Tyr^36]-PTHrP(7-36), each antagonist at a dose of 500 nmol/kg (n=5 mice per group). Blood was collected from the tail vein and calcium was measured as described above in Example 13.

[8] = biological target: T1, human PTH1R (hPTH1R-KI mice); assay: Antagonist response: blood calcium after co-injection with PTH(1-34) in hPTH1R-KI mice; type: in vivo, mouse; settings: 3-month-old hPTH1R-KI mice, 40 nmol/kg subcutaneous
Procedure: as §3

## abaloparatide: synthetic 34-amino acid PTHrP(1-34)-based analogue, AVSEHQLLHDKGKSIQDLRRRELLEKLLXKLHTA, X is Aib (SEQ ID NO: 22)
[1]
  duration of calcemic response: more a transient functional response
  blood Ca++ levels at 4 hours: returned to baseline
[2]
  serum Pi levels at 2 hours post-injection: returned to near-vehicle control levels
[3]
  binding selectivity for the RG conformation of PTH1R: more selectively than teriparatide; also recorded: greater selectivity
[4]
  reversal of bone loss: complete reversal of bone loss
[5]
  reversal of bone loss: complete reversal of bone loss
[6]; in vivo
  rate of clearance from the blood: comparable rates of clearance

## PTHrP(1-36)
[1]
  duration of calcemic response: more a transient functional response
  blood Ca++ levels at 4 hours: returned to baseline

## CC[C@H](C)[C@H](NC(=O)[C@H](CCC(=O)O)NC(=O)[C@H](CO)NC(=O)[C@@H](NC(=O)[C@@H](N)CO)C(C)C)C(=O)N[C@@H](CCC(N)=O)C(=O)N[C@@H](CC(C)C)C(=O)N[C@@H](CCSC)C(=O)N[C@@H](Cc1cnc[nH]1)C(=O)N[C@@H](CC(N)=O)C(=O)N[C@@H](CC(C)C)C(=O)NCC(=O)N[C@@H](CCCCN)C(=O)N[C@@H](Cc1cnc[nH]1)C(=O)N[C@@H](CC(C)C)C(=O)N[C@@H](CC(N)=O)C(=O)N[C@@H](CO)C(=O)N[C@@H](CCSC)C(=O)N[C@@H](CCC(=O)O)C(=O)N[C@@H](CCCN=C(N)N)C(=O)N[C@H](C(=O)N[C@@H](CCC(=O)O)C(=O)N[C@@H](Cc1c[nH]c2ccccc12)C(=O)N[C@@H](CC(C)C)C(=O)N[C@@H](CCCN=C(N)N)C(=O)N[C@@H](CCCCN)C(=O)N[C@@H](CCCCN)C(=O)N[C@@H](CC(C)C)C(=O)N[C@@H](CCC(N)=O)C(=O)N[C@@H](CC(=O)O)C(=O)N[C@H](C(=O)N[C@@H](Cc1cnc[nH]1)C(=O)N[C@@H](CC(N)=O)C(=O)N[C@@H](Cc1ccccc1)C(=O)O)C(C)C)C(C)C [PTH(1-34)]
[7]
  difference in calcemic response duration compared to the other two ligands: not seen
[1]
  duration of calcemic response: more prolonged calcemic response
  blood Ca++ levels at 4 hours: remained elevated
[2]
  phosphaturic response profile: more prolonged activity in vivo
  serum Pi levels at 2 hours post-injection: remained low
PTH1R (WT mice)
  blood calcium levels after PTH(1-34) alone: expected rise in blood calcium levels
[8]
  blood calcium levels after PTH(1-34) alone: expected rise in blood calcium levels
[6]; previous analyses
  rate of clearance from the blood: comparable rates of clearance
